{"source": "paper PMC10165273", "about": "“Itch receptor MRGPRX4 interacts with the receptor activity–modifying proteins” (The Journal of Biological Chemistry, 2023)", "key": {"[1]": {"test_system": "mock-transfected HEK293T cells", "experiment": "IP1 accumulation, mock-transfected cells", "assay_type": "cell-based, human", "design": "IP1 Basal / IP1 span / IP1 Emax / IP1 accumulation, dose-response (Figure 1a) / IP1 accumulation with YM (Figure 1c) / IP1 accumulation: unit not given here", "details": "pcDNA (mock), individual replicates", "description": "(§1) HEK293T cells were transfected with 1 pg/cell of MRGPRX4 DNA, and the amount of DNA was kept constant at 2 pg/cell with pcDNA3.1(+) empty vector, unless otherwise specified. Twenty four hours after transfection, IP1 assay was performed as previously described ([51]). When applicable, cells were treated with 1 μM YM254890 (YM) or different concentrations of U73122 for 1 h prior to addition of agonist or buffer. After incubation for 2 h, HTRF reagents and IP1 calibration standards were added and incubated for 2 h in the dark at room temperature. Time-resolved fluorescence signals were read on the BioTek Synergy NEO-TRF Hybrid multi-mode reader (BioTek Instruments). All data were carried out in three independent experiments with three technical replicate each.\nValidation of CALCRL constructs was assayed by cotransfecting HEK293T cells with different tagged versions of CALCRL alone or with each RAMP and with the promiscuous Gqs5 Gq chimera protein, at a respective DNA ratio of 1:1:0.5. Gqs5 is an engineered Gq protein containing the last five amino acid residues of Gs, which allows Gs-coupled GPCRs to signal through Gq downstream signaling pathways ([55]). The homogenous transfection method described above was used for all DNA mixes. CALCRL:RAMP2:Gqs5-transfected cells served as positive control for RAMP functionality.\n(§2) Data reduction, standard calibration, and transformation of HTRF data were performed as previously described ([51]). Normalized IP1 values were calculated relative to the unstimulated mock-transfected cells (set to 0%) and fully stimulated MRGPRX4 (alone if applicable) (set to 100%)."}, "[2]": {"target": "T1, MRGPRX4 + RAMP1 (Homo sapiens, UniProt Q96LA9)", "T1 construct": "expressed in transfected cells; host or cells: HEK293T", "T1 sequence (Q96LA9 whole entry)": "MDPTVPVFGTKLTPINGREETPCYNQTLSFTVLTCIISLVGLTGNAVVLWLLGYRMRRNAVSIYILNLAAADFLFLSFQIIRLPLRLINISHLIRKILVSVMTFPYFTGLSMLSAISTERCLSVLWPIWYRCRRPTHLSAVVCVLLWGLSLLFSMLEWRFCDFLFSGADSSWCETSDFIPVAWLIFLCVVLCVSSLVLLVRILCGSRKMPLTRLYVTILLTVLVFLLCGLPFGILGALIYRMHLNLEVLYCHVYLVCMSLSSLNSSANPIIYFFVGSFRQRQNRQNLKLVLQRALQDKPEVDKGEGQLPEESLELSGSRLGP", "experiment": "IP1 accumulation, MRGPRX4 coexpressed with RAMP1", "assay_type": "cell-based", "design": "key to IP1 Basal / response to agonist, X4:ramp1.I:1 / response to agonist, X4:ramp1.I:2 / response to agonist, X4:ramp1.I:0.25 / response to agonist, X4:ramp1.I:0.5: % IP1; unstimulated mock = 0%, fully stimulated MRGPRX4 = 100%", "details": "Figure 4c-f, agonist 100µM, MRGPRX4 = 100", "description": "as §1\nFor a homogenous transfection of MRGPRX4, a master mix of MRGPRX4 DNA was made prior to addition of the RAMP DNA. […]\nas §2"}, "[3]": {"target": "T2, MRGPRX4 + RAMP2 (Homo sapiens, UniProt Q96LA9)", "T2 construct": "expressed in transfected cells; host or cells: HEK293T", "T2 sequence (Q96LA9 whole entry)": "as above", "experiment": "IP1 accumulation, MRGPRX4 coexpressed with RAMP2", "assay_type": "cell-based", "design": "key to response to agonist, X4:ramp2.I:2: % IP1: mock-transfected unstimulated = 0%, fully stimulated MRGPRX4 = 100%; key to IP1 Basal / response to agonist, X4:ramp2.I:0.25 / response to agonist, X4:ramp2.I:0.5 / response to agonist, X4:ramp2.I:1: % IP1; unstimulated mock = 0%, fully stimulated MRGPRX4 = 100%", "details": "Figure 4c-f, agonist 100µM, MRGPRX4 = 100", "description": "as §1\n(§3) For RAMP DNA titration assay, HEK293T cells were cotransfected with a constant amount of 1 pg/cell of FLAG-MRGPRX4-GFP10-1D4 to which a serial dilution of 1, 0.75, 0.5, 0.25, or 0 pg/cell of each HA-RAMP-OLLAS was added. For a homogenous transfection of MRGPRX4, a master mix of MRGPRX4 DNA was made prior to addition of the RAMP DNA. […]\nas §2"}, "[4]": {"target": "T3, MRGPRX4 + RAMP3 (Homo sapiens, UniProt Q96LA9)", "T3 construct": "expressed in transfected cells; host or cells: HEK293T", "T3 sequence (Q96LA9 whole entry)": "as above", "experiment": "IP1 accumulation, MRGPRX4 coexpressed with RAMP3", "assay_type": "cell-based", "design": "key to IP1 Basal / response to agonist, X4:ramp3.I:0.25 / response to agonist, X4:ramp3.I:0.5 / response to agonist, X4:ramp3.I:1: % IP1; unstimulated mock = 0%, fully stimulated MRGPRX4 = 100%", "details": "Figure 4c-f, agonist 100µM, MRGPRX4 = 100", "description": "as §1, §3, §2"}, "[5]": {"target": "T4, MRGPRX4 (Homo sapiens, UniProt Q96LA9)", "T4 construct": "expressed in transfected cells; host or cells: HEK293T", "T4 sequence (Q96LA9 whole entry)": "as above", "experiment": "IP1 accumulation HTRF assay, MRGPRX4", "assay_type": "cell-based", "design": "key to IP1 Basal / IP1 accumulation with YM (Figure 1c) / response to agonist, MRGPRX4 / IP1 accumulation: % IP1: unstimulated mock-transfected = 0%, fully stimulated MRGPRX4 = 100%", "description": "as §1\nFor characterization of the Tet-On Nluc-HT7-MRGPRX4-GFP10-1D4 construct, HEK293T cells were transfected as previously described with some modifications. Dox dose-response of NLuc-HT7-MRGPRX4-GFP10-1D4 DNA titration was assayed by transfecting HEK293T cells with either 1 or 2 pg/cell of NLuc-HT7-MRGPRX4-GFP10-1D4 construct. Receptor expression was induced 4 h after transfection with addition of different concentrations of dox for 20 h. For the RAMP DNA titration assay, cells were cotransfected with a constant amount of 1 pg/cell of NLuc-HT7-MRGPRX4-GFP10-1D4 DNA and 1, 0.75, 0.5, or 0 pg/cell of each HA-RAMP-OLLAS with the homogenous transfection method. Four hours after transfection, receptor expression was induced with addition of 1000 ng/ml dox. Twenty hours after induction, IP1 assay was performed.\nas §2"}, "[6]": {"target": "T3, MRGPRX4 + RAMP3", "experiment": "IP1 accumulation, MRGPRX4 coexpressed with RAMP3", "assay_type": "cell-based", "design": "key: % IP1; unstimulated mock = 0%, fully stimulated MRGPRX4 = 100%", "details": "Figure 4c-f; agonist 100µM; X4:ramp3 1:2; MRGPRX4 = 100"}}, "note": "Values joined by “and” are separate entries in the source; they are usually repeats but may differ in a detail not shown here. Equal values may be shown once.", "data": [{"smiles": "C[C@H](CCC(=O)O)[C@H]1CC[C@H]2[C@@H]3[C@@H](O)C[C@@H]4C[C@H](O)CC[C@]4(C)[C@H]3CC[C@]12C", "note": "[UDCA, ursodeoxycholic acid]", "values": [{"measurement": "IP1 accumulation, dose-response (Figure 1a)", "setting": "[1]; log [agonist] (M) -4", "result": "0.4812 and 0.4346 and 0.8349 and -0.1011 and 0.2178 and -0.3214 and 0.5013 and -0.2736 and -1.513 and -0.6571 and 0.03201 and -0.9921"}, {"measurement": "IP1 accumulation, dose-response (Figure 1a)", "setting": "[1]; log [agonist] (M) -4.95424", "result": "0.8578 and 0.7057 and 0.8792 and 0.1679 and 0.2632 and -0.1306 and 0.2729 and -0.3135 and 0.01077 and -0.3984 and 1.094 and -0.3997"}, {"measurement": "IP1 accumulation, dose-response (Figure 1a)", "setting": "[1]; log [agonist] (M) -5.90849", "result": "0.6444 and 0.5533 and 0.8424 and 0.3166 and 0.4567 and -0.2351 and 0.4796 and -0.05346 and 0.7094 and 0.5317 and 1.212 and 0.8514"}, {"measurement": "IP1 accumulation, dose-response (Figure 1a)", "setting": "[1]; log [agonist] (M) -6.86273", "result": "1.003 and 1.057 and 1.14 and 0.6057 and 0.714 and 0.2582 and 0.7883 and 0.3494"}, {"measurement": "response to agonist, X4:ramp1.I:0.25", "setting": "[2]; X4:ramp1 1:0.25", "result": "100.75 and 106.142"}, {"measurement": "response to agonist, X4:ramp1.I:0.5", "setting": "[2]; X4:ramp1 1:0.5", "result": "100.618 and 106.983"}, {"measurement": "response to agonist, X4:ramp1.I:1", "setting": "[2]; X4:ramp1 1:1", "result": "95.1306 and 98.4249"}, {"measurement": "response to agonist, X4:ramp1.I:2", "setting": "[2]; X4:ramp1 1:2", "result": "83.6233 and 101.678"}, {"measurement": "response to agonist, X4:ramp2.I:0.25", "setting": "[3]; X4:ramp2 1:0.25", "result": "79.4398 and 88.1338"}, {"measurement": "response to agonist, X4:ramp2.I:0.5", "setting": "[3]; X4:ramp2 1:0.5", "result": "67.697 and 77.1393"}, {"measurement": "response to agonist, X4:ramp2.I:1", "setting": "[3]; X4:ramp2 1:1", "result": "40.116 and 40.4903"}, {"measurement": "response to agonist, X4:ramp2.I:2", "setting": "[3]; X4:ramp2 1:2", "result": "13.5988 and 14.044"}, {"measurement": "response to agonist, X4:ramp3.I:0.25", "setting": "[4]; X4:ramp3 1:0.25", "result": "86.9905 and 87.7685"}, {"measurement": "response to agonist, X4:ramp3.I:0.5", "setting": "[4]; X4:ramp3 1:0.5", "result": "74.5043 and 88.6761"}, {"measurement": "response to agonist, X4:ramp3.I:1", "setting": "[4]; X4:ramp3 1:1", "result": "78.3418 and 68.7873"}, {"measurement": "activation at 33.333 µM", "setting": "[5]; 2 h, log [agonist] (M) -4.47712, MRGX4-transfected, individual replicates, read-out: IP1 accumulation, dose-response (Figure 1a)", "result": 16.7, "unit": "%"}, {"measurement": "activation at 11.111 µM", "setting": "[5]; 2 h, log [agonist] (M) -4.95424, MRGX4-transfected, individual replicates, read-out: IP1 accumulation, dose-response (Figure 1a)", "result": 14.8, "unit": "%"}, {"measurement": "activation at 1.2346 µM", "setting": "[5]; 2 h, log [agonist] (M) -5.90849, MRGX4-transfected, individual replicates, read-out: IP1 accumulation, dose-response (Figure 1a)", "result": 12.9, "unit": "%"}, {"measurement": "activation at 0.4115 µM", "setting": "[5]; 2 h, log [agonist] (M) -6.38561, MRGX4-transfected, individual replicates, read-out: IP1 accumulation, dose-response (Figure 1a)", "result": 12.7, "unit": "%"}, {"measurement": "activation at 0.13717 µM", "setting": "[5]; 2 h, log [agonist] (M) -6.86273, MRGX4-transfected, individual replicates, read-out: IP1 accumulation, dose-response (Figure 1a)", "result": 12.1, "unit": "%"}, {"measurement": "response to agonist, MRGPRX4", "setting": "[5]; Figure 4c-f, agonist 100µM, MRGPRX4 alone (reference = 100)", "result": 100}, {"measurement": "IP1 Basal", "setting": "[5]; MRGPRX4 (Fig. 1A), HEK293T, normalized to 100 μM nateglinide", "result": 13.66}, {"measurement": "response to agonist, X4:ramp3.I:2", "setting": "[6]", "result": "54.7688 and 68.6572"}]}]}
